Measurements as given in publication PMC11740379, “Novel Enyne-Modified 1,4-Thiazepines as Epidermal Growth Factor Receptor Inhibitors: Anticancer and Computational Studies” (ACS Omega, 2024).
Where two headings read alike, the source gives them in different places.

What was measured:
Type in all cases: cell-based, human
HEK-293 cells = assay: XTT cytotoxicity assay, non-tumorigenic cells; conditions: XTT assay, exposure time of the IC50 not stated (24, 48, 72 h tested)
Description: Human cell lines for breast cancer (MCF-7), lung cancer (A549), prostate cancer (PC-3), and nontumorigenic HEK-293 were sourced from the Health Protection Agency (U.K.) and the Interlab Cell Line Collection (Italy). The cells were cultured in RPMI medium (Sigma) supplemented with 10% heat-inactivated fetal bovine serum, 1% penicillin, and 1% L-glutamine, and incubated in a humidified CO2 atmosphere at 37 °C.
(§1) To evaluate the cytotoxic effects of TZEPs, which were dissolved in dimethyl sulfoxide (DMSO), the XTT assay (2,3-bis(2-methoxy-4-nitro-5-sulfophenyl)-2H-tetrazolium-5-carboxanilide) was employed. Cells were plated in 96-well plates at a density of 10^4 cells per well and exposed to varying concentrations of TZEPs (ranging from 1 to 250 μM) for 24, 48, and 72 h. Following the incubation, 100 μL of XTT was added to each well, and the plates were incubated for an additional 4 h at 37 °C. The resulting color change was measured by recording the absorbance at 570 nm using a microplate reader (Tecan).
The IC50 values, which indicate the concentration of the compound required to inhibit 50% of cancer cell proliferation, were determined using Biosoft CalcuSyn 2.1 software. […] Conversely, an SI less than 1 means the drug is more toxic to normal cells than to target cells, which is undesirable in therapeutic contexts. In the literature, a selectivity index of 2 or higher is generally considered significant, implying that the compound selectively targets diseased cells with relatively low toxicity to healthy cells.[15]

MCF-7 cells [1] = assay: XTT cytotoxicity assay, breast cancer cells; conditions: for IC50: read-out: IC50, breast cancer (MCF-7); for Selectivity index (SI), breast cancer (MCF-7): versus normal cells HEK-293
Description: (§2) The cells were cultured in RPMI medium (Sigma) supplemented with 10% heat-inactivated fetal bovine serum, 1% penicillin, and 1% L-glutamine, and incubated in a humidified CO2 atmosphere at 37 °C.
as §1, with “Cells were plated in 96-well plates at a density of 10^4 cells per well and exposed to varying concentrations of TZEPs (ranging from 1 to 250 μM) for 24, 48, and 72 h.” left out
(§3) Conversely, an SI less than 1 means the drug is more toxic to normal cells than to target cells, which is undesirable in therapeutic contexts.

A549 cells [2] = assay: XTT cytotoxicity assay, lung cancer cells; conditions: for IC50: read-out: IC50, lung cancer (A549); for Selectivity index (SI), lung cancer (A549): versus normal cells HEK-293
Description: as §2
as §1, with “Cells were plated in 96-well plates at a density of 10^4 cells per well and exposed to varying concentrations of TZEPs (ranging from 1 to 250 μM) for 24, 48, and 72 h.” left out
as §3

PC-3 cells [3] = assay: XTT cytotoxicity assay, prostate cancer cells; conditions: for IC50: read-out: IC50, prostate cancer (PC-3); for Selectivity index (SI), prostate cancer (PC-3): versus normal cells HEK-293
Description: as §2
as §1, with “Cells were plated in 96-well plates at a density of 10^4 cells per well and exposed to varying concentrations of TZEPs (ranging from 1 to 250 μM) for 24, 48, and 72 h.” left out
as §3

A549 cells [4] = assay: Annexin V-FITC/PI apoptosis detection by flow cytometry; conditions: A549, IC50 concentration, 72 h
Text: (§4) Annexin V, a protein with a high affinity for phosphatidylserine (PS), is pivotal in detecting apoptosis. Normally, PS is located in the inner leaflet of the plasma membrane, but during apoptosis, it moves to the outer leaflet, making it a key marker for apoptotic cells.[16] Annexin V binds specifically to PS on the surface of these cells. A secondary dye like propidium iodide (PI) is used to distinguish apoptotic cells from viable ones with intact membranes. We can identify and quantify viable cells (annexin V–, PI–) and apoptotic cells (annexin V+, PI+) by analyzing fluorescence patterns. Here, we employed the FITC Annexin V Apoptosis Detection Kit I from BD Pharmingen. Cells were seeded at a density of 10^6 cells per well in a 6-well plate and exposed to IC50 concentration of TZEP7 for 72 h. Following treatment, cells were rinsed with cold PBS, resuspended in 1 mL of 1× Binding Buffer, and stained with 5 μL of Annexin V FITC and 5 μL of PI. After vortexing, the samples were incubated at room temperature (25 °C) for 15 min in the dark. Postincubation, 400 μL of 1× Binding Buffer was added to each sample, and apoptosis was measured using a BD Accuri C6 Flow Cytometer. Cisplatin was used as an apoptosis-inducing reference drug.

MCF-7 cells [5] = assay: as above; conditions: MCF-7, IC50 concentration, 72 h
Text: as §4

PC-3 cells [6] = assay: as above; conditions: PC-3, IC50 concentration, 72 h
Text: as §4

[7] = Homo sapiens, MCF7, XTT assay, exposure time of the IC50 not stated (24, 48, 72 h tested)
[8] = Homo sapiens, A549, XTT assay, exposure time of the IC50 not stated (24, 48, 72 h tested)
[9] = Homo sapiens, PC-3, XTT assay, exposure time of the IC50 not stated (24, 48, 72 h tested)
[10] = XTT assay, exposure time of the IC50 not stated (24, 48, 72 h tested)

SMILES | IC50 (HEK-293 cells; Homo sapiens, HEK293) [µM] | IC50 (MCF-7 cells [1]; [7]) [µM] | Selectivity index (SI), breast cancer (MCF-7) (MCF-7 cells [1]) | IC50 (A549 cells [2]; [8]) [µM] | Selectivity index (SI), lung cancer (A549) (A549 cells [2]) | IC50 (PC-3 cells [3]; [9]) [µM] | Selectivity index (SI), prostate cancer (PC-3) (PC-3 cells [3]) | IC50 (HEK-293 cells) [µM] | IC50 (MCF-7 cells [1]; [10]) [µM] | IC50 (A549 cells [2]; [10]) [µM] | IC50 (PC-3 cells [3]; [10]) [µM] | cells in early apoptosis (A549 cells [4]) [%] | cells in late apoptosis (A549 cells [4]) [%] | cells in early apoptosis (MCF-7 cells [5]) [%] | cells in late apoptosis (MCF-7 cells [5]) [%] | cells in early apoptosis (PC-3 cells [6]) [%] | cells in late apoptosis (PC-3 cells [6]) [%] | IC50 (MCF-7 cells [1]; Homo sapiens, MCF7, 72 h) [µM] | IC50 (A549 cells [2]; Homo sapiens, A549, 72 h) [µM] | IC50 (PC-3 cells [3]; Homo sapiens, PC-3, 72 h) [µM]
C(#Cc1ccccc1)/C=C1/CN=C(c2ccccc2)C=C(c2ccccc2)S1 [TZEP1] | 29.5 ± 0.8 | 69.4 ± 1.2 | 0.42 | 38.7 ± 3.2 | 0.76 | 12.4 ± 3.2 | 2.37 |  |  |  |  |  |  |  |  |  |  |  |  | 
Fc1cccc(C2=NC/C(=C/C#Cc3ccccc3)SC(c3ccccc3)=C2)c1 [TZEP2] | 45.7 ± 2.7 | 66.4 ± 1.8 | 0.68 | 61.4 ± 1.6 | 0.74 | 57.7 ± 1.4 | 0.79 |  |  |  |  |  |  |  |  |  |  |  |  | 
Brc1ccc(C2=NC/C(=C/C#Cc3ccccc3)SC(c3ccccc3)=C2)cc1 [TZEP3] | 35.5 ± 1.3 | 13.3 ± 1 | 2.66 | 60.3 ± 0.8 | 0.58 | 71.2 ± 0.9 | 0.49 |  |  |  |  |  |  |  |  |  |  |  |  | 
Clc1ccc(C2=CC(c3ccccc3)=NC/C(=C/C#Cc3ccccc3)S2)cc1 [TZEP4] | 47.3 ± 0.7 | 81.2 ± 4.4 | 0.58 | 71.1 ± 2.6 | 0.66 | 73.5 ± 2.2 | 0.64 |  |  |  |  |  |  |  |  |  |  |  |  | 
Brc1ccccc1C1=CC(c2ccccc2)=NC/C(=C/C#Cc2ccccc2)S1 [TZEP5] | 20.4 ± 1.4 | 22.3 ± 1.8 | 0.91 | 45.8 ± 0.9 | 0.44 | 54.9 ± 3.2 | 0.37 |  |  |  |  |  |  |  |  |  |  |  |  | 
Clc1ccc(C2=NC/C(=C/C#Cc3ccccc3)SC(c3ccccc3Br)=C2)cc1 [TZEP6] | 10.9 ± 3.4 | 15.5 ± 2.8 | 0.70 | 14.2 ± 2.2 | 0.76 | 12.4 ± 3.6 | 0.87 |  |  |  |  |  |  |  |  |  |  |  |  | 
C(#Cc1ccccc1)/C=C1/CN=C(c2ccsc2)C=C(c2ccccc2)S1 [TZEP8] | 99.2 ± 3 | 85.7 ± 2.4 | 1.15 | 112.8 ± 0.8 | 0.87 | 95.4 ± 1.2 | 1.03 |  |  |  |  |  |  |  |  |  |  |  |  | 
Cc1ccc(C2=NC/C(=C/C#Cc3ccccc3)SC(c3ccccc3)=C2)cc1 [TZEP9] | 98.8 ± 0.7 | 78.4 ± 1.8 | 1.26 | 96.6 ± 1.4 | 1.02 | 103 ± 2 | 0.96 |  |  |  |  |  |  |  |  |  |  |  |  | 
CC(C)(C)c1ccc(C2=NC/C(=C/C#Cc3ccccc3)SC(c3ccccc3)=C2)cc1 [TZEP10] | 89 ± 0.5 | 76.3 ± 0.8 | 1.16 | 64.4 ± 1.8 | 1.38 | 73.7 ± 3.2 | 1.20 |  |  |  |  |  |  |  |  |  |  |  |  | 
COc1ccc(C2=NC/C(=C/C#Cc3ccccc3)SC(c3ccccc3)=C2)cc1 [TZEP11] | 112 ± 3 | 98.2 ± 2.8 | 1.14 | 108 ± 2.6 | 1.04 | 81.6 ± 3.4 | 1.37 |  |  |  |  |  |  |  |  |  |  |  |  | 
Cc1ccc(C#C/C=C2/CN=C(c3ccccc3)C=C(c3ccccc3)S2)cc1 [TZEP12] | 110 ± 1.2 | 92.6 ± 1 | 1.19 | 90.5 ± 0.7 | 1.21 | 101 ± 3 | 1.09 |  |  |  |  |  |  |  |  |  |  |  |  | 
N.N.[Cl][Pt][Cl] [cisplatin, Cisplatin, reference compound] |  |  | 1.02 |  | 1.11 |  | 1.17 | 15 ± 0.7 | 14.7 ± 0.6 | 13.4 ± 1.4 | 12.8 ± 2.8 | 13.4 | 70.8 | 18.7 | 72.2 | 16.2 | 75.4 |  |  | 
C#Cc1cccc(Nc2ncnc3cc(OCCOC)c(OCCOC)cc23)c1 [erlotinib, Erlotinib, reference compound] | 12.9 ± 3 |  |  |  |  |  |  |  |  |  |  |  |  |  |  |  |  | 13.4 ± 2 | 18.4 ± 0.4 | 15.5 ± 30.8
